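Method: 48-hour compound exposure of cells in 96-well plates, five concentrations, linear interpolation of endpoints. GI50 is the concentration that inhibits growth by half. The concentration for full growth arrest is given as TGI.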
Experiments:
Test in all cases: growth of human tumour cells (NCI), 48 h
MDA-N = system: MDA-N
DU-145 prostate = system: DU-145 prostate
PC-3 prostate = system: PC-3 prostate
KM20L2 colon = system: KM20L2 colon
DMS 273 small cell lung = system: DMS 273 small cell lung
DLD-1 colon = system: DLD-1 colon
M19-MEL melanoma = system: M19-MEL melanoma
LXFL 529 NSCLC = system: LXFL 529 NSCLC
RXF-631 renal = system: RXF-631 renal

Structure (SMILES)	TGI (MDA-N)	TGI (DU-145 prostate)	TGI (PC-3 prostate)	TGI (KM20L2 colon)	TGI (DMS 273 small cell lung)	TGI (DLD-1 colon)	TGI (M19-MEL melanoma)	TGI (LXFL 529 NSCLC)	TGI (RXF-631 renal)	GI50 (DU-145 prostate)	GI50 (PC-3 prostate)
Cc1c2c(C(N)=O)nccc2c(C)c2c1c1ccccc1n2Cc1ccccc1	> 100 µM	> 100 µM	27.7 µM								
Cc1ccc2occ/c(=N\Nc3ccccc3)c2c1	> 100 µM	> 100 µM	> 100 µM								
CCOC(=O)C1=C(Nc2ccc(Br)cc2)OCC1=O				> 100 µM	> 100 µM	> 100 µM	> 100 µM	> 100 µM			
CC(C)(C)c1cc(C(=O)/C=C/c2ccc(C(=O)O)cc2)cc(C(C)(C)C)c1	8.6 µM	8.52 µM	16.4 µM								
CC1=NC(C)(COC(=O)C2(C)NC(C)(CO)CO2)COC1=O (stereo not drawn)	> 100 µM	> 100 µM	> 100 µM								
CCOC(=O)C(C)(c1c(C)[nH]c2ccccc12)c1c(C)[nH]c2ccccc12				31 µM	31 µM	75.9 µM		77.3 µM			
CC1CCC(C(C)(C)c2ccccc2)C(=O)C1 (stereo not drawn)				> 100 µM	> 100 µM	> 100 µM	> 100 µM	> 100 µM			
COc1ccc2nc3cc(Cl)ccc3c(Sc3ccc(NC(C)=O)cc3)c2c1				> 42.1 µM	21.6 µM	> 24.1 µM	> 22.2 µM	> 23.5 µM	> 100 µM		
NC(N)=N/N=C(\N=Nc1ccccc1)c1ccc(Cl)cc1		21.3 µM	11.3 µM							7.38 µM	2.48 µM
COC(=O)c1c[nH]cc1CCCCc1c[nH]cc1C(=O)OC				> 100 µM	> 100 µM		> 100 µM		> 100 µM		
C=C1C(=O)OC2C1CC(OC(C)=O)/C(C)=C/CCC1(C)OC21 (stereo not drawn)	> 100 µM	> 100 µM	> 100 µM								
COC(=O)[C@]12CC[C@@H](C)[C@H](C)[C@@H]1C1=CC[C@@H]3[C@@]4(C)C(C=O)=C[C@@](C)(COC(=O)c5ccco5)[C@@H]4[C@H](O)C[C@@]3(C)[C@]1(C)CC2			7.55 µM								1.29 µM
O=C(NNc1cnccn1)c1nc2cc(F)ccc2n2cccc12		> 100 µM	> 100 µM							0.745 µM	0.527 µM
NC(=O)c1cn(Cc2ccccc2)c(=O)n1Cc1ccccc1				> 100 µM	> 100 µM	> 100 µM	> 100 µM	> 100 µM			
Cc1sc2c(c1C)C(c1ccc(Cl)cc1)=N[C@@H](CC(=O)Nc1ccc(OCCOCCOCCOCCNc3cccc4c3C(=O)N(C3CCC(=O)NC3=O)C4=O)cc1)c1nnc(C)n1-2 (stereo partly drawn)		> 100 µM	> 100 µM							> 59.3 µM	< 0.02 µM
CC1COS(=O)O1 (stereo not drawn)				> 100 µM	> 100 µM	> 100 µM	> 100 µM				
CC(C)(C)OC(=O)N1C2CCCC23O[C@@H]1c1cc2c(cc1C3=O)OCO2 (stereo partly drawn)					> 100 µM	> 100 µM	> 100 µM	> 100 µM	> 100 µM		
CC1(C)N=C(N)N=C(N)N1c1cccc(OCCOc2cccc([N+](=O)[O-])c2)c1		> 100 µM	> 38.5 µM							4.38 µM	0.0906 µM

Structure (SMILES)	TGI (MDA-N)	TGI (DU-145 prostate)	TGI (PC-3 prostate)	TGI (KM20L2 colon)	TGI (DMS 273 small cell lung)	TGI (DLD-1 colon)	TGI (M19-MEL melanoma)	TGI (LXFL 529 NSCLC)	TGI (RXF-631 renal)	GI50 (DU-145 prostate)	GI50 (PC-3 prostate)
COc1ccc(-c2ccc(NNC(=O)c3ccc(F)cc3)nn2)cc1OC		> 100 µM	> 100 µM							> 100 µM	50.5 µM
O=C1C=CC(=CC=C2C=CN(CCCCCCCCCCC(=O)NCCCCCCCCCCCC(=O)O)C=C2)C=C1				> 100 µM	> 100 µM	> 100 µM	> 100 µM	> 100 µM	> 100 µM		
N#CC(C#N)=C1CCCOc2c1ccc1ccccc21		> 100 µM	> 100 µM							> 100 µM	39.8 µM
CC12CCC(=O)N1c1cccnc1N2 (stereo not drawn)				> 100 µM		> 100 µM	> 100 µM	> 100 µM			
O=C1c2ccccc2C(=O)N1C/C=N/NS(=O)(=O)c1ccc(Br)cc1				> 100 µM	> 100 µM	> 100 µM	> 100 µM	> 100 µM	> 100 µM		
CC(=O)NC1CONC1=O (stereo not drawn)	> 100 µM	> 100 µM	> 100 µM								
Cc1ccc(C)c(N2C(=O)C(=O)C(c3nc4ccccc4o3)/C(=N/N)C2=O)c1 (stereo not drawn)				> 100 µM	> 100 µM	> 100 µM	> 100 µM	> 100 µM			
CCOC(=O)c1sc(NC(=O)COc2cccc(/C=C3\CCc4cc(OC)ccc4C3=O)c2)nc1C		3.81 µM								1.86 µM	
C=CCn1c(SCC(=O)Nc2ccc(C(=O)/C=C/c3cc(OC)c(OC)c(OC)c3)cc2)nnc1-c1ccc(OC)cc1		16 µM	> 100 µM							0.453 µM	0.642 µM
Cc1noc2c1-c1ccccc1C(c1ccc(Cl)cc1)=N[C@H]2CC(N)=O		> 100 µM	> 100 µM							79.3 µM	12 µM
NC(CCc1ncc(C(=O)O)s1)C(=O)O (stereo not drawn)						> 100 µM	> 100 µM	> 100 µM	> 100 µM		
c1ccc2c(c1)c1ccccc1c1ccccc21		> 100 µM	> 100 µM							> 100 µM	> 100 µM
Oc1ccc(N=Nc2nccs2)c(O)c1		17.1 µM	48.8 µM							5.23 µM	8.08 µM
C1=NC(N(Cc2ccccc2)Cc2ccccc2)N(Cc2ccccc2)N1 (stereo not drawn)				30.8 µM	29.1 µM	67.9 µM	34.2 µM	30.7 µM	56 µM		
Cn1c(=S)c2[nH]c(SCCCc3ccccc3)nc2n(C)c1=O	> 100 µM	> 100 µM	> 100 µM								
O=C1c2ccccc2C(=O)c2c(NCCN=Cc3ccccc3O)cccc21		7.66 µM	8.1 µM							2.22 µM	2.18 µM
C=CCC1(C)CCCCC1(O)CS(=O)c1ccccc1 (stereo not drawn)				> 100 µM	> 100 µM	> 100 µM	> 100 µM		> 100 µM		

— PubChem BioAssay (NCI)
